From US7541346B2, “Pancratistatin cyclic phosphate prodrugs and phenpanstatin cyclic phosphate prodrugs” (Arizona Board of Regents, a body corporate of the State of …, priority 2003, dated 2009)
Values after ≈ are worked out from the molar mass of the structure shown. Read-outs that look alike come from different tables or passages of the source.

How the values were obtained:
BXPC-3 = experiment: Human cancer cell line inhibitory activity, Pancreas-a BXPC-3; assay type: cell-based; details: for GI50: Homo sapiens, BXPC-3, read-out: GI50 Pancreas-a BXPC-3
MCF-7 = experiment: Human cancer cell line inhibitory activity, Breast MCF-7; assay type: cell-based; details: for GI50: Homo sapiens, MCF7, read-out: GI50 Breast MCF-7
[1] = tested on: Encephalitozoon intestinalis; details: in vitro; cited from earlier work
KM20L2 = experiment: Human cancer cell line inhibitory activity, Colon KM20L2; assay type: cell-based; details: for GI50: Homo sapiens, KM-20L2, read-out: GI50 Colon KM20L2
SF268 = experiment: Human cancer cell line inhibitory activity, CNS SF268; assay type: cell-based; details: for GI50: Homo sapiens, SF-268, read-out: GI50 CNS SF268
DU-145 = experiment: Human cancer cell line inhibitory activity, Prostate DU-145; assay type: cell-based; details: for GI50: Homo sapiens, DU-145, read-out: GI50 Prostate DU-145
NCI-H460 = experiment: Human cancer cell line inhibitory activity, Lung-NSC NCI-H460; assay type: cell-based; details: for GI50: Homo sapiens, NCI-H460, read-out: GI50 Lung-NSC NCI-H460
[2] = freeze dried solid
Experimental: Sodium pancratistatin 3,4-cyclic phosphate (5a, 0.0165 g, 0.04 mmol) was dissolved in water (1 ml) and eluted through a column containing Amberlite IR 120 (H+) resin.

| SMILES | GI50 Pancreas-a BXPC-3 (BXPC-3) | GI50 Breast MCF-7 (MCF-7) | GI50 Colon KM20L2 (KM20L2) | GI50 CNS SF268 (SF268) | GI50 Prostate DU-145 (DU-145) | GI50 Lung-NSC NCI-H460 (NCI-H460) | also measured |
| --- | --- | --- | --- | --- | --- | --- | --- |
| O=C1N[C@H]2[C@H](O)[C@H](O)[C@@H](O)[C@H](O)[C@@H]2c2cc3c(c(O)c21)OCO3 [Compound 1a, (+)-pancratistatin, reference compound] |  |  |  |  |  |  | GI50 (BXPC-3): 0.02 µg/mL (≈ 0.0615 µM); GI50 (MCF-7): 0.023 µg/mL (≈ 0.0707 µM); activity against microspirochesis [1]: remarkable activity; GI50 (KM20L2): 0.025 µg/mL (≈ 0.0769 µM); GI50 (SF268): 0.014 µg/mL (≈ 0.043 µM); GI50 (DU-145): 0.015 µg/mL (≈ 0.0461 µM); GI50 (NCI-H460): 0.032 µg/mL (≈ 0.0984 µM) |
| O=C1N[C@H]2[C@H](O)[C@H](O)[C@@H](O)[C@H](O)[C@@H]2c2cc3c(c(OP(=O)([O-])[O-])c21)OCO3.[Na+].[Na+] [Compound 1b, sodium pancratistatin 7-O-phosphate, reference compound] | 0.20 µg/mL | 0.20 µg/mL | 0.17 µg/mL | 0.079 µg/mL | 0.026 µg/mL | 0.19 µg/mL |  |
| O=C1N[C@@H]2C(=C[C@H](O)[C@@H](O)[C@H]2O)c2cc3c(c(O)c21)OCO3 [Compound 2a, narciclasine, reference compound] | 0.0035 µg/mL (≈ 0.0114 µM) | 0.0032 µg/mL (≈ 0.0104 µM) | 0.0032 µg/mL (≈ 0.0104 µM) | 0.0031 µg/mL (≈ 0.0101 µM) | 0.0032 µg/mL (≈ 0.0104 µM) | 0.0084 µg/mL (≈ 0.0273 µM) |  |
| O=C(O[C@H]1[C@H](O)[C@@H](O)[C@@H](O)[C@@H]2NC(=O)c3c(cc4c(c3O)OCO4)[C@H]21)c1ccccc1 [Compound 3a, phenpanstatin] |  |  |  |  |  |  | GI50 (BXPC-3): 0.0019 µg/mL (≈ 0.00442 µM); GI50 (MCF-7): 0.00031 µg/mL (≈ 0.000722 µM); GI50 (KM20L2): 0.00037 µg/mL (≈ 0.000862 µM); GI50 (SF268): 0.00055 µg/mL (≈ 0.00128 µM); GI50 (DU-145): 0.00021 µg/mL (≈ 0.000489 µM); GI50 (NCI-H460): 0.0001 µg/mL (≈ 0.000233 µM) |
| O=C(O[C@H]1[C@H](O)[C@H]2OP(=O)([O-])O[C@H]2[C@@H]2NC(=O)c3c(cc4c(c3O)OCO4)[C@H]21)c1ccccc1.[Na+] [Compound 3b, Sodium Phenpanstatin 3,4,O-cyclic Phosphate] |  |  |  |  |  |  | GI50 Pancreas-a BXPC-3 (BXPC-3; human cancer cell line BXPC-3): 0.25 µg/mL; GI50 Breast MCF-7 (MCF-7; human cancer cell line MCF-7): 0.041 µg/mL; GI50 Colon KM20L2 (KM20L2; human cancer cell line KM20L2): 0.13 µg/mL; GI50 CNS SF268 (SF268; human cancer cell line SF268): 0.17 µg/mL; GI50 Prostate DU-145 (DU-145; human cancer cell line DU-145): 0.13 µg/mL; GI50 Lung-NSC NCI-H460 (NCI-H460; human cancer cell line NCI-H460): 0.029 µg/mL |
| O=C1N[C@H]2[C@H](OP(=O)([O-])[O-])[C@H](O)[C@@H](O)[C@H](O)[C@@H]2c2cc3c(c(O)c21)OCO3.[Na+].[Na+] [Compound 4a, Sodium Pancratistatin 4-O-phosphate] | 0.18 µg/mL | 0.18 µg/mL | 0.24 µg/mL | 0.12 µg/mL | 0.94 µg/mL | 0.38 µg/mL |  |
| O=C1N[C@H]2[C@H](OP(=O)(O)O)[C@H](O)[C@@H](O)[C@H](O)[C@@H]2c2cc3c(c(O)c21)OCO3 [Compound 4b, Pancratistatin 4-O-phosphoric Acid] | 0.36 µg/mL (≈ 0.888 µM) | 0.43 µg/mL (≈ 1.06 µM) | 0.33 µg/mL (≈ 0.814 µM) | 0.35 µg/mL (≈ 0.864 µM) | 0.20 µg/mL (≈ 0.494 µM) | 0.42 µg/mL (≈ 1.04 µM) | stability of the material [2]: unstable and decomposed over several days |
| O=C1N[C@H]2[C@H](OP(=O)([O-])O)[C@H](O)[C@@H](O)[C@H](O)[C@@H]2c2cc3c(c(O)c21)OCO3.[Li+] [Compound 4c, Lithium Pancratistatin 4-O-phosphate] | 0.30 µg/mL | 0.39 µg/mL | 0.25 µg/mL | 0.28 µg/mL | 0.20 µg/mL | 0.35 µg/mL |  |
| O=C1N[C@H]2[C@H](OP(=O)([O-])[O-])[C@H](O)[C@@H](O)[C@H](O)[C@@H]2c2cc3c(c(O)c21)OCO3.[K+].[K+] [Compound 4d, Potassium Pancratistatin 4-O-phosphate] | 0.45 µg/mL | 0.46 µg/mL | 0.30 µg/mL | 0.39 µg/mL | 0.22 µg/mL | 0.40 µg/mL |  |
